These results are taken from patent US9776997B2, “3-aryl-substituted imidazo[1,2-A]pyridines and their use” (Bayer Pharma Aktiengesellschaft, priority 2013, dated 2017).

This experiment addresses T1, recombinant guanylate cyclase reporter cell line (Rattus norvegicus, UniProt P19686+P20595).
T1 construct: expressed in transfected cells; host or cells: recombinant reporter cell line
T1 sequence (P19686 1-690): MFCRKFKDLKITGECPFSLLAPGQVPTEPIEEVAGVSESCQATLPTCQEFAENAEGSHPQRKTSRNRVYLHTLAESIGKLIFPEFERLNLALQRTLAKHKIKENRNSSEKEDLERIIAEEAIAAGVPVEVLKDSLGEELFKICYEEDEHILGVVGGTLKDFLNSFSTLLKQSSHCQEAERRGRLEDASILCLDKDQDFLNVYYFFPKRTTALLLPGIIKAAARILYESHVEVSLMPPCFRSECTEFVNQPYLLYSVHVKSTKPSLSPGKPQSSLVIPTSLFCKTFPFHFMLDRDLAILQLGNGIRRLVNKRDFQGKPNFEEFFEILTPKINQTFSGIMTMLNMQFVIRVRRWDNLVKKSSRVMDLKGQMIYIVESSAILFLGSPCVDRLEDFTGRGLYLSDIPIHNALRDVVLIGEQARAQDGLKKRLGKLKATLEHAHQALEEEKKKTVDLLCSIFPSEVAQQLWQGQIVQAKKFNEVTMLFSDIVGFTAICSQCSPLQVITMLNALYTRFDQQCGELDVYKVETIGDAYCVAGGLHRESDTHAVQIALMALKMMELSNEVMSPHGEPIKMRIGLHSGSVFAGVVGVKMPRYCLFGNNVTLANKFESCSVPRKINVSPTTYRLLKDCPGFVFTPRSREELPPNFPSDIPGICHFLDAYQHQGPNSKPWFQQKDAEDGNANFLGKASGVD
T1 sequence (P20595 1-619): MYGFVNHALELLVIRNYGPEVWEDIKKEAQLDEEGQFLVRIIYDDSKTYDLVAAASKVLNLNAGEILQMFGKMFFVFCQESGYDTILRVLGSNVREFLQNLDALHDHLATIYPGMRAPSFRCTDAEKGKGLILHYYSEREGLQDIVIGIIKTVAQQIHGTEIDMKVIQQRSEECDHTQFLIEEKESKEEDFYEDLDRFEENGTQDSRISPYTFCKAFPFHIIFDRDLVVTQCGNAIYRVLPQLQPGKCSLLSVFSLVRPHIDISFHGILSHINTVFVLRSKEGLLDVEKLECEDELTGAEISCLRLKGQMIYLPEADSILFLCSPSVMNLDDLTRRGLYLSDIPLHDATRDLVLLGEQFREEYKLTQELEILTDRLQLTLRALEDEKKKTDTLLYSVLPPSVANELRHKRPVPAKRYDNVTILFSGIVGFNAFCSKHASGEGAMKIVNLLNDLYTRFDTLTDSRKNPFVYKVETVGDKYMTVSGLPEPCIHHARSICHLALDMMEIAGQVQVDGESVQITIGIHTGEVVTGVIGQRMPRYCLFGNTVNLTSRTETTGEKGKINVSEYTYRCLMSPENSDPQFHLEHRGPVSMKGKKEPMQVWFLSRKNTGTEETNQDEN
Put plainly: Effect on a recombinant guanylate cyclase reporter cell line. The format is cell-based. The settings on record: MEC = minimum effective concentration; in some cases mean values for individual determinations. Here is the method: B-2. Effect on a Recombinant Guanylate Cyclase Reporter Cell Line
The cellular effect of the inventive compounds is determined using a recombinant guanylate cyclase reporter cell line, as described in F. Wunder et al., Anal. Biochem. 339, 104-112 (2005).
Representative MEC values (MEC=minimum effective concentration) for the inventive compounds are shown in the table below (in some cases as mean values for individual determinations): […]
With `Cc1cc(OCc2c(F)cccc2F)c2nc(C)c(-c3noc(CC(C)(C)N)n3)n2c1` [Example 131, 1-(3-{8-[(2,6-Difluorobenzyl)oxy]-2,6-dimethylimidazo[1,2-a]pyridin-3-yl}-1,2,4-oxadiazol-5-yl)-2-methylpropan-2-amine], the MEC worked out at 1.0 µM. The figure for `Cc1cc(OCc2c(F)cccc2F)c2nc(C)c(-c3nc(CC(C)(C)N)no3)n2c1.O=CO` [Example 132, 1-(5-{8-[(2,6-Difluorobenzyl)oxy]-2,6-dimethylimidazo[1,2-a]pyridin-3-yl}-1,2,4-oxadiazol-3-yl)-2-methylpropan-2-amine formate] is 0.3 µM. The figure for `Cc1cc(OCc2c(F)cccc2F)c2nc(C)c(-c3nnc(CC(C)(C)N)s3)n2c1.O=CO` [Example 133, 1-(5-{8-[(2,6-Difluorobenzyl)oxy]-2,6-dimethylimidazo[1,2-a]pyridin-3-yl}-1,3,4-thiadiazol-2-yl)-2-methylpropan-2-amine formate] is 0.3 µM; for `Cc1nc2c(OCc3c(F)cccc3F)cccn2c1-c1cn[nH]n1` [Example 134, 8-[(2,6-Difluorobenzyl)oxy]-2-methyl-3-(2H-1,2,3-triazol-4-yl)imidazo[1,2-a]pyridine] it is 1.0 µM. The figure for `Cc1ccc(-c2c(C)nc3c(OCc4c(F)cccc4F)cc(C)cn23)cc1` [Example 135, 8-[(2,6-Difluorobenzyl)oxy]-2,6-dimethyl-3-(4-methylphenyl)imidazo[1,2-a]pyridine] is 3.0 µM; for `Cc1cc(OCc2c(F)cccc2F)c2nc(C)c(-c3ncc(C)o3)n2c1` [Example 137, 8-[(2,6-Difluorobenzyl)oxy]-2,6-dimethyl-3-(5-methyl-1,3-oxazol-2-yl)imidazo[1,2-a]pyridine] it is 3.0 µM.

On to `CCOC(=O)c1ncc(-c2c(C)nc3c(OCc4c(F)cccc4F)cc(C)cn23)s1` [Example 138, Ethyl 5-{8-[(2,6-difluorobenzyl)oxy]-2,6-dimethylimidazo[1,2-a]pyridin-3-yl}-1,3-thiazole-2-carboxylate], for which the MEC was determined as 3.0 µM. The figure for `CCOc1cc(-c2c(C)nc3c(OCc4c(F)cccc4F)cc(C)cn23)sc1N` [Example 139, 5-{8-[(2,6-Difluorobenzyl)oxy]-2,6-dimethylimidazo[1,2-a]pyridin-3-yl}-3-ethoxythiophen-2-amine] is 0.1 µM; for `Cc1cc(OCc2c(F)cccc2F)c2nc(C)c(-c3cccnc3)n2c1` [Example 140, 8-[(2,6-Difluorobenzyl)oxy]-2,6-dimethyl-3-(pyridin-3-yl)imidazo[1,2-a]pyridine] it is 0.1 µM. As for `CCOC(=O)c1cc(-c2c(C)nc3c(OCc4c(F)cccc4F)cc(C)cn23)on1` [Example 141, Ethyl 5-{8-[(2,6-difluorobenzyl)oxy]-2,6-dimethylimidazo[1,2-a]pyridin-3-yl}-1,2-oxazole-3-carboxylate], the figure is 1.0 µM; as for `Cc1cc(OCc2c(F)cccc2F)c2nc(C)c(-c3cc(CO)no3)n2c1` [Example 142, (5-{8-[(2,6-Difluorobenzyl)oxy]-2,6-dimethylimidazo[1,2-a]pyridin-3-yl}-1,2-oxazol-3-yl)methanol], 0.1 µM. As for `Cc1cc(OCc2c(F)cccc2F)c2nc(C)c(-c3cc(CC(C)(C)N)n[nH]3)n2c1` [Example 143, 1-(3-{8-[(2,6-Difluorobenzyl)oxy]-2,6-dimethylimidazo[1,2-a]pyridin-3-yl}-1H-pyrazol-5-yl)-2-methylpropan-2-amine], the figure is 1.0 µM. With `Cc1cc(OCc2c(F)cccc2F)c2nc(C)c(-c3cc(CC(C)(C)N)no3)n2c1` [Example 144, 1-(5-{8-[(2,6-Difluorobenzyl)oxy]-2,6-dimethylimidazo[1,2-a]pyridin-3-yl}-1,2-oxazol-3-yl)-2-methylpropan-2-amine], the MEC stood at 0.3 µM.
